Test results from patent US20200030242A1, “ORAL DOSAGE FORM WITH DRYING AGENT FOR DELIVERY OF ACTIVE AGENT” (Entrega Inc., priority 2016, published 2020).

Assay: Surgical Bioavailability Assay
Format: in vivo, porcine model
Conditions: neat active agent powder placed via surgical incision, compared to a control oral dosage form
Description: “Surgical Bioavailability Assay” as used herein refers to an assay used to determine bioavailability of an active agent using a surgical testing method. In the Surgical Bioavailability Assay, a porcine model is also used, in which the animals undergo open surgery such that oral dosage forms to be tested can be placed at regions of the intestine of interest, such as the jejunum and ileum. After administration of anesthesia, a ventral midline incision is made to gain access to the animal's abdominal cavity. The jejunum and ileum are exposed, and incisions are made to manually place the oral dosage forms being tested. After oral dosage form placement is complete, the intestinal incisions are closed, and the midline incision can also be temporarily closed. Also, access can be made for blood collection via the carotid artery or jugular vein. […] The percent bioavailability of the active agent provided with the oral dosage form is determined on the basis of the active agent levels detected in these blood samples.
Surgical Bioavailability Assay. […] The percent bioavailability of the active agent provided with the oral dosage form is determined on the basis of the active agent levels detected in these blood samples.

## calcitonin
  bioavailability (FIG. 4): good bioavailability

## C[C@@H](O)[C@@H]1NC(=O)[C@H](CCCCN)NC(=O)[C@@H](Cc2c[nH]c3ccccc23)NC(=O)[C@H](Cc2ccccc2)NC(=O)[C@@H](NC(=O)[C@H](N)Cc2ccccc2)CSSC[C@@H](C(=O)N[C@H](CO)[C@@H](C)O)NC1=O [octreotide]
  bioavailability (FIG. 4): good bioavailability
